Measured values as given in patent publication US8329686B2, “Isatin analogues and uses therefor” (Washington University, priority 2006, dated 2012).
Read-outs that look alike come from different tables or passages of the source. Residues, ends and D or L forms follow the SMILES beside them.

What was measured:
Format in all cases: biochemical
caspase 7 = molecular target: T1, caspase 7 (Homo sapiens, UniProt P55210); experiment: Enzyme inhibition assay, caspase 7 (fluorogenic Ac-DEVD-AMC)
T1 construct: purchased Sigma-Aldrich (St. Louis, Mo.)
T1 sequence (P55210 24-198 limits assumed): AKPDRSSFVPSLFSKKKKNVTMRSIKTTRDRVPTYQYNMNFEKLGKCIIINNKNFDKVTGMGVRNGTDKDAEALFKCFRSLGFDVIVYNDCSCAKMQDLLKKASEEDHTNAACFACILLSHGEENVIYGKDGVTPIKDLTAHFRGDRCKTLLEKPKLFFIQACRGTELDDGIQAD
T1 sequence (P55210 207-303 limits assumed): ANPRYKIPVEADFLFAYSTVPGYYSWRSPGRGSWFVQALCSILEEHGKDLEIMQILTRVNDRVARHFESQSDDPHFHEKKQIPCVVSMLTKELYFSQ

caspase 8 = molecular target: T2, caspase 8 (Homo sapiens, UniProt Q14790); experiment: Enzyme inhibition assay, caspase 8 (fluorogenic Ac-IETD-AMC)
T2 construct: purchased Sigma-Aldrich (St. Louis, Mo.)
T2 sequence (Q14790 217-374 limits assumed): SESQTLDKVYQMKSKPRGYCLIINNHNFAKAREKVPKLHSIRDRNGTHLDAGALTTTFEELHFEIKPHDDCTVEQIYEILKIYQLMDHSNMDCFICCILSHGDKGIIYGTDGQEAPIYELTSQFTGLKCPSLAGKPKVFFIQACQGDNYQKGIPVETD
T2 sequence (Q14790 385-479 limits assumed): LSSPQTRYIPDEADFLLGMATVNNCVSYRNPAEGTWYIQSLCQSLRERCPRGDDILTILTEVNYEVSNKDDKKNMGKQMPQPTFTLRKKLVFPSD

caspase 1 = molecular target: T3, caspase 1 (Homo sapiens, UniProt P29466); experiment: Enzyme inhibition assay, caspase 1 (fluorogenic Ac-YVAD-AMC)
T3 construct: purchased BIOMOL Research Laboratories (Plymouth Meeting, Pa.)
T3 sequence (P29466 120-297 limits assumed): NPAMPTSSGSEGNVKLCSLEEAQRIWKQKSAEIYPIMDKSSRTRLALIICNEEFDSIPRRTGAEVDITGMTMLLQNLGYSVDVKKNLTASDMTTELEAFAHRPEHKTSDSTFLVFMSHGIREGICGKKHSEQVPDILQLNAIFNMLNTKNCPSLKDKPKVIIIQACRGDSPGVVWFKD
T3 sequence (P29466 317-404 limits assumed): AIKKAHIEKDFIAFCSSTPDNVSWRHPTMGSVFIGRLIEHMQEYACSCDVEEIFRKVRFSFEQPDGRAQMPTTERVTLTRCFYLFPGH

caspase-3 = molecular target: T4, caspase-3 (Homo sapiens, UniProt P42574); experiment: Enzyme inhibition assay, caspase 3 (fluorogenic Ac-DEVD-AMC)
T4 construct: purchased Sigma-Aldrich (St. Louis, Mo.)
T4 sequence (P42574 29-175 limits assumed): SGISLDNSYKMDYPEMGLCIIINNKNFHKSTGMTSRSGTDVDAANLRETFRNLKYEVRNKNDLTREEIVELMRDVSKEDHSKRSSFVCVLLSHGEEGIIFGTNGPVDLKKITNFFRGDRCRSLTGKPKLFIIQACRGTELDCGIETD
T4 sequence (P42574 176-277 limits assumed): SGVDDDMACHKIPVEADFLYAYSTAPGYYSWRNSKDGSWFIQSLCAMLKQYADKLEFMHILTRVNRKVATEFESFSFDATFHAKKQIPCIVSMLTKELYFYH

caspase 6 = molecular target: T5, caspase 6 (Homo sapiens, UniProt P55212); experiment: Enzyme inhibition assay, caspase 6 (fluorogenic Ac-VEID-AMC); settings: Table 6; read-out: IC50 (nM) caspase-6
T5 construct: purchased Sigma-Aldrich (St. Louis, Mo.)
T5 sequence (P55212 24-179 limits assumed): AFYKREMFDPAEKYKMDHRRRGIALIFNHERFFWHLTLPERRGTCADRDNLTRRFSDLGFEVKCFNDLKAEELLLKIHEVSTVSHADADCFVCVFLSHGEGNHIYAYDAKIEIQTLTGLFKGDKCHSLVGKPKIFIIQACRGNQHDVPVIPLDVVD
T5 sequence (P55212 194-293 limits assumed): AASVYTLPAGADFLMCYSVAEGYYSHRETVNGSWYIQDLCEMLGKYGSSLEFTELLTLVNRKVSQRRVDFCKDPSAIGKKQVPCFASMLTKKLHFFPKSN

[1] = Table 4, read-out: IC50 (nM) caspase-7
[2] = Table 4, read-out: IC50 (nM) caspase-3
[3] = Table 6, read-out: IC50 (nM) caspase-7
[4] = Table 6, read-out: IC50 (nM) caspase-1
[5] = Table 6, read-out: IC50 (nM) caspase-3
[6] = Table 6, read-out: IC50 (nM) caspase-8

IC50 (caspase 7; [1]) [nM]	IC50 (caspase-3; [2]) [nM]	IC50 (caspase-3; [5]) [nM]	Compound	IC50 (caspase 7; [3]) [nM]	IC50 (caspase 1; [4]) [nM]	IC50 (caspase 6) [nM]	other results
			CC(=O)N[C@@H](CC(=O)O)C(=O)N[C@@H](CCC(=O)O)C(=O)N[C@H](C(=O)N[C@H](C=O)CC(=O)O)C(C)C [Ac-DEVD-CHO, reference compound]				IC50 (caspase 7; Table 1, read-out: IC50 (nM) Caspase 7): 8.5 ± 1 nM; IC50 (caspase 7; Table 2, read-out: IC50 (nM) Caspase 7): 8 ± 1 nM
			CC[C@H](C)[C@H](NC(C)=O)C(=O)N[C@@H](CCC(=O)O)C(=O)N[C@H](C(=O)N[C@H](C=O)CC(=O)O)[C@@H](C)O [Ac-IETD-CHO, reference compound] (Ac-IETD-aldehyde)				IC50 (caspase 8; Table 1, read-out: IC50 (nM) Caspase 8): 4.7 ± 0.9 nM; IC50 (caspase 8; Table 2, read-out: IC50 (nM) Caspase 8): 4 ± 0.1 nM
			CC(=O)N[C@@H](Cc1ccc(O)cc1)C(=O)N[C@H](C(=O)N[C@@H](C)C(=O)N[C@H](C=O)CC(=O)O)C(C)C [Ac-YVAD-CHO, reference compound]				IC50 (caspase 1; Table 1, read-out: IC50 (nM) Caspase 1): 8.1 ± 2.1 nM; IC50 (caspase 1; Table 2, read-out: IC50 (nM) Caspase 1): 8.1 ± 2.1 nM
540 ± 56.6	240 ± 10		O=C1Nc2ccc(S(=O)(=O)N3CCC[C@H]3COc3ccccc3)cc2C1=O [Compound 10, (S)-5-(2-Phenoxymethyl-pyrrolidine-1-sulfonyl)-1H-indole-2,3-dione]				
44 ± 0.1	13.5 ± 2.4		O=C1C(=O)N(Cc2ccc(O)cc2)c2ccc(S(=O)(=O)N3CCC[C@H]3COc3ccccc3)cc21 [Compound 11f, (S)-1-(4-Hydroxybenzyl)-5-(2-phenoxymethyl-pyrrolidine-1-sulfonyl)-1H-indole-2,3-dione]				
14.5 ± 0.9	10.3 ± 1.5		O=C1C(=O)N(Cc2ccc(F)nc2)c2ccc(S(=O)(=O)N3CCC[C@H]3COc3ccccc3)cc21 [Compound 11g, (S)-1-(6-Fluoropyridin-3-yl-methyl)-5-(2-phenoxymethylpyrrolidine-1-sulfonyl)-1H-indole-2,3-dione]				
			CN1C(=O)C(=O)c2cc(S(=O)(=O)N3CCCC3COc3cccnc3)ccc21 (centres unmarked) [Compound 21a, 1-Methyl-5-(2-(pyridin-3-yl-oxymethyl)-pyrrolidine-1-sulfonyl)-1H-indole-2,3-dione]	94.9 ± 21.6	> 10000	> 5000	IC50 (caspase 8): > 50000 nM; IC50 (caspase-3; IC50 (nM) caspase-3, Table 6): 23.3 ± 3.1 nM
		5.2 ± 1.6	O=C1C(=O)N(Cc2ccccc2)c2ccc(S(=O)(=O)N3CCCC3COc3cccnc3)cc21 (centres unmarked) [Compound 21b, 1-Benzyl-5-(2-(pyridin-3-yl-oxymethyl)-pyrrolidine-1-sulfonyl)-1H-indole-2,3-dione]	14.1 ± 3.4	> 10000	> 5000	IC50 (caspase 8; [6]): > 50000 nM
		4.4 ± 1.4	CSc1ccc(CN2C(=O)C(=O)c3cc(S(=O)(=O)N4CCCC4COc4cccnc4)ccc32)cc1 (centres unmarked) [Compound 21d, 1-(4-Methylthiobenzyl)-5-(2-(pyridin-3-yl-oxymethyl)-pyrrolidine-1-sulfonyl)-1H-indole-2,3-dione]	23.3 ± 0.7	> 50000	> 5000	IC50 (caspase 8; [6]): > 50000 nM

Compound	IC50 (caspase 7; [1]) [nM]	IC50 (caspase-3; [2]) [nM]	IC50 (caspase-3; [5]) [nM]	IC50 (caspase 7; [3]) [nM]	IC50 (caspase 1; [4]) [nM]	IC50 (caspase 6) [nM]	other results
O=C1Nc2ccc(S(=O)(=O)N3CCCC3COc3cccnc3)cc2C1=O (centres unmarked) [Compound 20, 5-(2-(Pyridin-3-yl-oxymethyl)-pyrrolidine-1-sulfonyl)-1H-indole-2,3-dione]			58.3 ± 7.6	215 ± 49.5	> 5000	> 5000	IC50 (caspase 8): > 50000 nM
